Reference: patent US20140024663A1, “ATB(0,+) AMINO ACID TRANSPORTER AS A DRUG TARGET FOR TREATMENT OF ESTROGEN RECEPTOR-POSITIVE BREAST CANCER” (GEORGIA HEALTH SCIENCES UNIVERSITY RESEARCH INSTITUTE, INC., priority 2012, published 2014)

Experiments:
Human SLC6A14 = target: T1, Human SLC6A14 (Homo sapiens, UniProt Q9UN76); experiment: SLC6A14 transport function in X. laevis oocytes (two-microelectrode voltage-clamp); assay type: cell-based; details: 1 mM α-MT; currents induced by 100 M (so in the source) leucine, glutamine or arginine
T1 construct: expressed in transfected cells; host or cells: Xenopus laevis oocytes, microinjected with human SLC6A14 cRNA
T1 sequence (Q9UN76 1-642): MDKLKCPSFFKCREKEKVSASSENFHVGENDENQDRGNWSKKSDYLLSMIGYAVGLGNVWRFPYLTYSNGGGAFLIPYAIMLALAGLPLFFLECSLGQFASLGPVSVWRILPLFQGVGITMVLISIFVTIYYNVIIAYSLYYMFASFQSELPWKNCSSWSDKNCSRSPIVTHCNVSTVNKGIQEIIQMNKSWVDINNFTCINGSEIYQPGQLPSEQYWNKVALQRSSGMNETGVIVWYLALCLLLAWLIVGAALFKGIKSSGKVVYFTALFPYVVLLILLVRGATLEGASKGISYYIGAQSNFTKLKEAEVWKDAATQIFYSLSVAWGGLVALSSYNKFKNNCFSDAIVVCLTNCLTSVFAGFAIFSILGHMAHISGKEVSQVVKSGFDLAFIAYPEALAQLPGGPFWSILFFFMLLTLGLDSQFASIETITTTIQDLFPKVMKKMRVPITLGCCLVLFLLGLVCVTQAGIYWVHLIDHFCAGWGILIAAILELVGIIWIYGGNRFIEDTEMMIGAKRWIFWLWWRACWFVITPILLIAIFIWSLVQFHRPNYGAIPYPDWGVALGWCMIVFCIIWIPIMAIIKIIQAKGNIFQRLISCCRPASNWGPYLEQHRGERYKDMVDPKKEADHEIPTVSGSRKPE
Text: FIGS. 3A and 3B. Natactivation kinetics of SLC6A14-mediated transport of leucine (FIG. 3A) and arginine and glutamine (FIG. 3B). Human SLC6A14 was expressed heterologously in X. laevis oocytes by microinjection of cRNA. Four days following injection, oocytes were used for electrophysiological studies using the two-microelectrode voltage-clamp method. […] Since the expression levels varied from oocyte to oocyte resulting in varying magnitudes of amino acid-induced currents, the currents were normalized by taking the magnitude of the currents induced at 100 mM Na^+ as 1 in each oocyte and calculating the magnitude of the currents induced at other concentrations of Na^+ as a fraction of this maximal current. The experiments were done with three different oocytes and the results are given as means±SE. Insets, Hill plots.
FIG. 4. Cl^−-activation kinetics of SLC6A14-mediated transport of leucine, arginine, and glutamine. […] The experiments were done with three different oocytes and the results are given as means±SE.
FIGS. 5A to 5C. Blockade of SLC6A14-mediated transport of leucine (FIG. 5A), glutamine (FIG. 5B), and arginine (FIG. 5C) by α-MT. Oocytes injected with human SLC6A14 cRNA were perifused with 100 µM leucine, 100 μM glutamine, or 100 μM arginine under varying experimental conditions as indicated.
Analysis of SLC6A14 transport function in X. laevis oocytes. SLC6A14-mediated transport of leucine, glutamine, and arginine and its blockade by α-MT were studied using the X. laevis oocyte heterologous expression system as described previously (Hatanaka et al., 2001, J Clin Invest; 107:1035-1043; and Karunakaran et al., 2008, Biochem J; 414:343-355). Human cloned SLC6A14 cDNA was used in these studies.

MCF7 cells = experiment: Analysis of autophagy (LC3 localization, electron microscopy, autophagosomal proteolysis, GFP-LC3); assay type: cell-based, human; details: MCF7, α-MT 2.5 mM, 48 h
Protocol: FIGS. 6A to 6C. Effects of SLC6A14 blockade with α-MT in breast cancer cells. In FIG. 6A, MCF10A (a non-malignant mammary epithelial cell line), MCF7 (an ER-positive breast cancer cell line), and MB231 (an ER-negative breast cancer cell line) cells were treated with or without 2.5 mM α-MT for 24, 48, or 72 h and then used for analysis of asparagine synthetase (ASNS) and CHOP mRNA levels. In FIG. 6B, MCF7, MB231 and MCF10A cells were treated with or without 2.5 mM α-MT for 48 h and then used for immunocytochemical analysis of the constitutively expressed LC-3. In FIG. 6C, MCF7 cells were treated with (“b” and “c”) or without (“a”) α-MT (2.5 mM) for 48 h and then used for electron microscopy. Arrows indicate sequestration of cytoplasm and organelles in pre-autophagosomes and autophagosome, and the asterisk indicates condensed chromatin. N, nucleus.
FIGS. 7A and 7B. Induction of autophagy in MCF7 cells by α-MT. […] The concentrations of α-MT and 3-MA, when present, were 2.5 mM and 10 mM. The treatment time was 48 h. The extent of proteolysis was determined by the radioactivity present in the protein-free supernatant. […] In FIG. 7B, MCF7 cells were transfected with an GFP-LC3 expression plasmid, and 24 h later, the cells were treated with or without α-MT (2.5 mM) in the presence or absence of 3-MA (10 mM) for 48 h. At the end of the treatment, cells were fixed, and the percent of cells with punctate localization of the ectopically expressed GFP-LC3 was quantified. “a” represents compared to control; “b” represents compared to treatment with α-MT alone; and “c” represents compared to treatment with […]; *, p<0.001.
Analysis of autophagy. Autophagy was analyzed as described previously (Periyasamy-Thandavan et al., 2010, Autophagy; 6:19-35; and Samaddar et al., 2008, Mol Cancer Ther; 7:2977-2987) by monitoring the localization pattern of constitutively expressed LC3 as well as that of ectopically expressed GFP-LC3. In the case of the constitutively expressed LC3, cells were treated without or with α-MT, and then used for immunocytochemical analysis of LC3 localization pattern. For ectopically expressed LC3, cells were transfected with a GFP-LC3 expression plasmid. Briefly, cells were plated on a coverslip to reach ˜50% confluence and transfection of these cells was done with 1 μg of the plasmid using FuGENE transfection reagent (Roche, Nutley, N.J.). […] At the end of the treatment, cells were fixed with 4% paraformaldehyde and examined by fluorescence microscopy to count the number of cells with punctate GFP-LC3. Autophagosomal proteolysis was quantified as described previously (Periyasamy-Thandavan et al., 2010, Autophagy; 6:19-35). […]

With `CC(N)(Cc1c[nH]c2ccccc12)C(=O)O` (racemic) [α-MT, α-methyl-DL-tryptophan] the “blockade of amino acid-induced inward currents” value (Human SLC6A14) was “blocked”, the “autophagosomal proteolysis of 14C-labeled proteins” value (MCF7 cells) was “increased proteolysis” and the “autophagy (punctate localization of constitutively expressed LC3, autophagosomes in electron microscopy)” value (MCF7 cells) was “induced autophagy”.
